Test results from patent EP4745138A1, “THIO-GLUTARIMIDO ISOINDOLINONE DERIVATIVE, BIFUNCTIONAL PROTEIN DEGRADER CONTAINING SAME, AND USES THEREOF” (Gluetacs Therapeutics (Shanghai) Co., Ltd., priority 2023, dated 2025).
Where two headings read alike, the source gives them in different places. Values belong to the compound of their own block, whether it stands above or below them.

Assays:
[1] = tested on: JEKO-1; test: Tumor cell proliferation inhibition (CellTiter-Meiluncell Luminescent Cell Viability Assay); assay type: cell-based; conditions: Homo sapiens, 96 hours, Table I-6, IRAK4 inhibitors; for inhibition at 0.01 µM: 10 nM, read-out: Inhibition Rate at 10 nM (%); for inhibition at 0.5 µM: 500 nM, read-out: Inhibition Rate at 500 nM (%)
Experimental: (§1) The tumor cells used herein were cultured in a cell culture medium listed in table 3 at 37°C in an incubator with 5% CO2. Prior to experimentation, all cell lines used were correctly identified by STR profiling, and tested negative for mycoplasma contamination using a mycoplasma detection kit through routine screenings. Table 3. Tumor cells and cell culture medium used in the present disclosure
(§2) The IC50 values of the compounds of the present disclosure (including the compounds in Table 1, Table 2, and Examples) were determined using the CellTiter-Meiluncell Luminescent Cell Viability Assay Kit from Dalian Meilun Biotech Co., Ltd. The detailed procedure is as follows: Tumor cells were seeded in 96-well cell culture plates at the densities specified in Table 4. On the following day, the test compounds of the present disclosure were subjected to serial dilution. […] Subsequently, 0.5 µL of the test compound dilution was transferred into the 96-well plate containing the cells, with each well containing 100 µL of cell culture medium. […] Into the 96-well plate, the diluted test compounds and corresponding detection reagents were added, resulting in final test compound concentrations of 500 nM and 10 nM, respectively. The experimental procedure is described below using the diluted 2 µM test compound as an example.
(§3) 0.5 µL of the aforementioned diluted compound of the present disclosure (including the compounds in Table 1, Table 2, and Examples) was added to the seeded cells in 100 µL of medium, yielding a final test compound concentration of 10 nM. After the cells were treated with the compounds of the present disclosure for a specified period, the cell viability assay reagent was added to the culture medium according to the kit's instructions to determine cell viability. […] All controls were treated using the same procedure as the compounds of the present disclosure. […] Seeding protocol and treatment time for tumor cells

[2] = tested on: MM.1S; test: as above; assay type: cell-based; conditions: Homo sapiens, MM1.S; for inhibition at 0.01 µM: read-out: Inhibition Rate at 10 nM (%); for inhibition at 0.5 µM: read-out: Inhibition Rate at 500 nM (%)
Experimental: as §1, §2, §3

[3] = tested on: MV-4-11; test: as above; assay type: cell-based; conditions: Homo sapiens, 96 hours; for inhibition at 0.01 µM: MV4-11, 10 nM, read-out: Inhibition Rate at 10 nM (%); for inhibition at 0.5 µM: MV4-11, 500 nM, read-out: Inhibition Rate at 500 nM (%)
Experimental: as §1, §2, §3

[4] = tested on: SW620; test: as above; assay type: cell-based; conditions: Homo sapiens, 96 hours; for inhibition at 0.01 µM: SW-620, 10 nM, read-out: Inhibition Rate at 10 nM (%); for inhibition at 0.5 µM: SW-620, 500 nM, read-out: Inhibition Rate at 500 nM (%)
Experimental: as §1, §2, §3

[5] = molecular target: T1, human Cereblon WT GST-tagged protein (Homo sapiens, UniProt Q96SW2); test: CRBN-binding affinity, HTRF (CEREBLON BINDING kit); conditions: for inhibition at 0.5 µM: read-out: Inhibition Rate at 0.5 µM (%); for inhibition at 2 µM: read-out: Inhibition Rate at 2 µM (%)
T1 construct: purchased CISBIO 64BDCRBNPEH
T1 sequence (Q96SW2 whole entry): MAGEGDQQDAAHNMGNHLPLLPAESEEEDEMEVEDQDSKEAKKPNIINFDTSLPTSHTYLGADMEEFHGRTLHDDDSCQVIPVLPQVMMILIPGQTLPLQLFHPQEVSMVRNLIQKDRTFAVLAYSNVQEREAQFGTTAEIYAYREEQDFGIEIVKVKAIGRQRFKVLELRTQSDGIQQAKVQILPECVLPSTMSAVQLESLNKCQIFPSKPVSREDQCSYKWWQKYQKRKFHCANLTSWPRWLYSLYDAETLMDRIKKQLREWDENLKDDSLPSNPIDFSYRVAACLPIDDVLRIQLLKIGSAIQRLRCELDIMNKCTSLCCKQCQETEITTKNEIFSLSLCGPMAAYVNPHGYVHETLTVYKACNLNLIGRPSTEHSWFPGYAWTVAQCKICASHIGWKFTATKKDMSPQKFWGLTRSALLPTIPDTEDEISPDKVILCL
In short: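 GST-tagged human wild-type Cereblon is mixed with test compound (final 2 µM and 0.5 µM) plus an anti-GST europium antibody/thalidomide-Red tracer pair. Binding is read as HTRF displacement, with buffer-only blank wells.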

[6] = tested on: MCF-7; test: Tumor cell proliferation inhibition (CellTiter-Meiluncell Luminescent Cell Viability Assay); assay type: cell-based; conditions: Homo sapiens, 96 hours, Table I-2, ALK inhibitors; for inhibition at 0.01 µM: MCF7, 10 nM, read-out: Inhibition Rate at 10 nM (%); for inhibition at 0.5 µM: MCF7, 500 nM, read-out: Inhibition Rate at 500 nM (%)
Experimental: as §1, §2, §3

[7] = tested on: RPMI-8226; test: as above; assay type: cell-based; conditions: Homo sapiens, 96 hours, Table I-10, BCR-ABL inhibitors; for inhibition at 0.01 µM: 10 nM, read-out: Inhibition Rate at 10 nM (%); for inhibition at 0.5 µM: 500 nM, read-out: Inhibition Rate at 500 nM (%)
Experimental: as §1, §2, §3

[8] = MM.1S, 10 nM, 96 hours, Table I-2, ALK inhibitors
[9] = MM.1S, 500 nM, 96 hours, Table I-2, ALK inhibitors

- inhibition at 0.5 µM [5]: 80 to 100%
- inhibition at 2 µM [5]: 80 to 100%
SMILES: O=C1CCC(N2Cc3cc(CN4CCC(n5cc(NC(=O)c6cnn7ccc(N8CCOCC8)nc67)c(C(F)F)n5)CC4)ccc3C2=S)C(=O)N1 (centres unmarked) [GT-05098, N-(3-(difluoromethyl)-1-(1-((2-(2,6-dioxopiperidin-3-yl)-1-thioxoisoindolin-5-yl)methyl)piperidin-4-yl)-1H-pyrazol-4-yl)-5-morpholinopyrazolo[1,5-a]pyrimidine-3-carboxamide]
- inhibition at 0.01 µM [1]: 5 to 10%
- inhibition at 0.5 µM [1]: 20 to 30%
- inhibition at 0.01 µM ([2]; MM.1S, 10 nM, 96 hours, Table I-6, IRAK4 inhibitors): 20 to 30%
- inhibition at 0.5 µM ([2]; MM.1S, 500 nM, 96 hours, Table I-6, IRAK4 inhibitors): 80 to 100%
- inhibition at 0.01 µM ([3]; Table I-6, IRAK4 inhibitors): 20 to 30%
- inhibition at 0.5 µM ([3]; Table I-6, IRAK4 inhibitors): 80 to 100%
- inhibition at 0.01 µM ([4]; Table I-6, IRAK4 inhibitors): 10 to 20%
- inhibition at 0.5 µM ([4]; Table I-6, IRAK4 inhibitors): 40 to 50%

- inhibition at 0.5 µM [5]: 40 to 53%
- inhibition at 2 µM [5]: 53 to 60%
SMILES: Cc1cc(Nc2ncc(Cl)c(Nc3ccccc3S(=O)(=O)C(C)C)n2)c(OC(C)C)cc1C1CCN(Cc2ccc3c(c2)CN(C2CCC(=O)NC2=O)C3=S)CC1 (centres unmarked) [GT-08674, 3-(5-((4-(4-((5-chloro-4-((2-(isopropylsulfonyl)pheny 1)amino)pyrimidin-2-yl)amino)-5-isopropoxy-2-methylphenyl)piperidin-1-yl)methyl)-1-thioxoisoindolin-2-yl)piperidine-2,6-dione]
- inhibition at 0.01 µM [6]: 30 to 40%
- inhibition at 0.5 µM [6]: 60 to 70%
- inhibition at 0.01 µM [2, 8]: 30 to 40%
- inhibition at 0.5 µM [2, 9]: 80 to 100%
- inhibition at 0.01 µM ([3]; Table I-2, ALK inhibitors): 0 to 10%
- inhibition at 0.5 µM ([3]; Table I-2, ALK inhibitors): 30 to 40%

Further lines, the compound ahead of its results:

SMILES: COc1cc(N2CCN(Cc3cccc4c3CN(C3CCC(=O)NC3=O)C4=S)CC2)ccc1Nc1ncc(Cl)c(Nc2ccccc2P(C)(C)=O)n1 (centres unmarked) [GT-08677, 3-(4-((4-(4-((5-chloro-4-((2-(dimethylphosphoryl)phenyl)amino)pyrimidin-2-yl)amino)-3-methoxyphenyl)piperazin-1-yl)methyl)-1-thioxoisoindolin-2-yl)piperidine-2,6-dione]
- inhibition at 0.01 µM [6]: -5 to 0%
- inhibition at 0.5 µM [6]: 30 to 40%
- inhibition at 0.01 µM [2, 8]: 10 to 20%
- inhibition at 0.5 µM [2, 9]: 20 to 30%
- inhibition at 0.01 µM ([3]; Table I-2, ALK inhibitors): 0 to 10%
- inhibition at 0.5 µM ([3]; Table I-2, ALK inhibitors): 60 to 70%
- inhibition at 0.5 µM [5]: 53 to 60%
- inhibition at 2 µM [5]: 80 to 100%

SMILES: Cc1ccc(C(=O)Nc2ccc(CN3CCN(Cc4cccc5c4CN(C4CCC(=O)NC4=O)C5=S)CC3)c(C(F)(F)F)c2)cc1C#Cc1cnc2cccnn12 (centres unmarked) [GT-08773, N-(4-((4-((2-(2,6-dioxopiperidin-3-yl)-1-thioxoisoindolin-4-yl)methyl)piperazin-1-yl)methyl)-3-(trifluoromethyl)phenyl)-3-(imidazo[1,2-b]pyridazin-3-ylethynyl)-4-methylbenzamide]
- inhibition at 0.01 µM ([2]; MM.1S, 10 nM, 96 hours, Table I-10, BCR-ABL inhibitors): 10 to 20%
- inhibition at 0.5 µM ([2]; MM.1S, 500 nM, 96 hours, Table I-10, BCR-ABL inhibitors): 80 to 100%
- inhibition at 0.01 µM ([3]; Table I-10, BCR-ABL inhibitors): 30 to 40%
- inhibition at 0.5 µM ([3]; Table I-10, BCR-ABL inhibitors): 80 to 100%
- inhibition at 0.01 µM [7]: 5 to 10%
- inhibition at 0.5 µM [7]: 60 to 70%
- inhibition at 0.01 µM ([4]; Table I-10, BCR-ABL inhibitors): 0 to 5%
- inhibition at 0.5 µM ([4]; Table I-10, BCR-ABL inhibitors): 70 to 80%
- inhibition at 0.5 µM [5]: 30 to 40%
- inhibition at 2 µM [5]: 60 to 80%

SMILES: CC[C@@H]1[C@H](F)C(=O)N[C@@H]1COc1nccc2cc(C(N)=O)c(OC)cc12 [PF06650833, PF-06650833, reference compound]
- inhibition at 0.01 µM [1]: 10 to 20%
- inhibition at 0.5 µM [1]: 20 to 30%
- inhibition at 0.01 µM ([2]; 96 h): 0 to 5%
- inhibition at 0.5 µM ([2]; 96 h): 0 to 5%
- inhibition at 0.01 µM ([3]; Table I-6, IRAK4 inhibitors): 20 to 30%
- inhibition at 0.5 µM ([3]; Table I-6, IRAK4 inhibitors): 20 to 30%
- inhibition at 0.01 µM ([4]; Table I-6, IRAK4 inhibitors): 10 to 20%
- inhibition at 0.5 µM ([4]; Table I-6, IRAK4 inhibitors): 10 to 20%

SMILES: Cc1ccc(NC(=O)c2ccc(CN3CCN(C)CC3)cc2)cc1Nc1nccc(-c2cccnc2)n1 [imatinib]
- inhibition at 0.01 µM ([3]; Table I-10, BCR-ABL inhibitors): 0 to 5%
- inhibition at 0.5 µM ([3]; Table I-10, BCR-ABL inhibitors): 0 to 5%
- inhibition at 0.01 µM [7]: 5 to 10%
- inhibition at 0.5 µM [7]: 10 to 20%
- inhibition at 0.01 µM ([4]; Table I-10, BCR-ABL inhibitors): 5 to 10%
- inhibition at 0.5 µM ([4]; Table I-10, BCR-ABL inhibitors): 10 to 20%
